Experimental findings from PubChem BioAssay (NCI) are described below.

Among the test systems are SR leukemia; OVCAR-5 ovarian; NCI/ADR-RES ovarian; SW-620 colon; OVCAR-8 ovarian; K-562 leukemia; HS 578T breast; HL-60(TB) leukemia; BT-549 breast; HT29 colon; M14 melanoma; HCT-116 colon; MDA-MB-231 breast; CAKI-1 renal; PC-3 prostate; RPMI-8226 leukemia; MALME-3M melanoma; MDA-MB-435; ACHN renal.
What all share (assay): NCI tumour cell line growth inhibition, 48 h

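96-well plates; 48 h exposure; 5 concentrations. Endpoints by linear interpolation between flanking doses. Not reached: highest tested concentration assigned. TGI: total growth inhibition.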 Some results are limits rather than exact numbers.

In the case of `Cc1cc(S(=O)(=O)n2ccnc2Oc2ccccc2)c(SSc2cc(Cl)c(C)cc2S(=O)(=O)n2ccnc2Oc2ccccc2)cc1Cl`, the TGI with SR leukemia, with OVCAR-5 ovarian, in the assay with NCI/ADR-RES ovarian, with SW-620 colon, with OVCAR-8 ovarian and in the assay on K-562 leukemia was > 100 µM throughout. The TGI in the assay on HS 578T breast was 38.6 µM; in the assay on HL-60(TB) leukemia it was > 100 µM; in the assay with BT-549 breast, > 100 µM; in the assay on HT29 colon it was > 100 µM; in the assay with M14 melanoma, > 100 µM; in the assay on HCT-116 colon, > 100 µM. Also, the TGI with MDA-MB-231 breast, in the assay with CAKI-1 renal, in the assay with PC-3 prostate, in the assay on RPMI-8226 leukemia, in the assay with MALME-3M melanoma and with MDA-MB-435 was > 100 µM in each case.

With `COc1ccc(C2=Nn3c(nc4sc(-c5ccccc5)cc4c3=O)SC2)cc1`, the TGI with SR leukemia, in the assay on OVCAR-5 ovarian, with NCI/ADR-RES ovarian, with SW-620 colon, in the assay with OVCAR-8 ovarian and with HS 578T breast was > 100 µM each time. Besides, the TGI in the assay with HL-60(TB) leukemia, in the assay on BT-549 breast, in the assay with HT29 colon, with HCT-116 colon, in the assay with MDA-MB-231 breast and with CAKI-1 renal was > 100 µM in each case. Also, the TGI in the assay on PC-3 prostate, in the assay on RPMI-8226 leukemia, with ACHN renal, in the assay on MALME-3M melanoma and with MDA-MB-435 was > 100 µM each time.

For the compound `O=C(Nc1sccc1S(=O)(=O)c1ccc(Cl)cc1)C(F)(F)F`, the TGI with SR leukemia was 58.3 µM; in the assay on OVCAR-5 ovarian, > 100 µM; in the assay on NCI/ADR-RES ovarian it was > 100 µM; with SW-620 colon, > 100 µM; in the assay with OVCAR-8 ovarian it was > 100 µM; in the assay on K-562 leukemia, 35.5 µM. For the same compound, the TGI in the assay with HS 578T breast is 72.1 µM; with BT-549 breast it was > 100 µM; with HT29 colon, > 100 µM; with M14 melanoma, > 100 µM; with HCT-116 colon, 37 µM; in the assay with MDA-MB-231 breast it was 37.3 µM. The TGI in the assay with CAKI-1 renal was 62.5 µM; in the assay on PC-3 prostate, > 100 µM; with RPMI-8226 leukemia, 31.4 µM; in the assay on ACHN renal, > 100 µM; in the assay on MALME-3M melanoma, > 100 µM; in the assay with MDA-MB-435 it was > 100 µM.

Consider `C[C@H]1CCCCC[C@@H]2CC(=O)CC2C(=O)CCC(=O)O1` (stereo not given in full), for which the TGI in the assay on SR leukemia, in the assay on OVCAR-5 ovarian, in the assay with NCI/ADR-RES ovarian, in the assay on SW-620 colon, in the assay with OVCAR-8 ovarian and in the assay on K-562 leukemia was > 100 µM throughout. The TGI with HS 578T breast, with HL-60(TB) leukemia, in the assay with BT-549 breast, in the assay with HT29 colon, in the assay on M14 melanoma and with HCT-116 colon was > 100 µM each time. Further, the TGI in the assay with MDA-MB-231 breast, with PC-3 prostate, with RPMI-8226 leukemia, in the assay on ACHN renal, with MALME-3M melanoma and with MDA-MB-435 was > 100 µM throughout.

On to `O=C1CSC(c2ccc(Cl)cc2)N1c1ccc(-c2ccc(-n3c(-c4ccccc4)nc4ccccc4c3=O)cc2)cc1` (stereo not given), for which the TGI was > 100 µM in the assay with SR leukemia; 82.5 µM in the assay with NCI/ADR-RES ovarian; > 100 µM with SW-620 colon; > 100 µM in the assay on OVCAR-8 ovarian; > 100 µM in the assay with K-562 leukemia; > 100 µM in the assay with HS 578T breast. Moreover, the TGI is > 100 µM in the assay on HL-60(TB) leukemia; > 100 µM in the assay on BT-549 breast; 41.5 µM with HT29 colon; > 100 µM in the assay with M14 melanoma; > 100 µM in the assay with HCT-116 colon; > 100 µM in the assay on MDA-MB-231 breast. Also, the TGI in the assay on CAKI-1 renal was > 100 µM; with PC-3 prostate it was > 100 µM; with RPMI-8226 leukemia, > 100 µM; with ACHN renal, > 100 µM; with MALME-3M melanoma, > 100 µM; in the assay with MDA-MB-435, 71.3 µM.

Take `Cc1ccc(C(CC(=O)C(C)(C)CN2CCCCC2)SCCS(=O)(=O)O)cc1` (stereo not given): the TGI was 45.3 µM with SR leukemia; > 100 µM in the assay with OVCAR-5 ovarian; 84.9 µM in the assay on NCI/ADR-RES ovarian; 62.8 µM in the assay with SW-620 colon; 65.4 µM in the assay with OVCAR-8 ovarian; 51.4 µM in the assay on K-562 leukemia. Moreover, the TGI is 68.9 µM with HS 578T breast; > 100 µM in the assay with BT-549 breast; 72.8 µM in the assay on HT29 colon; 50.1 µM with M14 melanoma; 59.2 µM in the assay on HCT-116 colon; > 100 µM in the assay on MDA-MB-231 breast. Also, the TGI was 51 µM in the assay with CAKI-1 renal; > 100 µM with PC-3 prostate; 48.1 µM with RPMI-8226 leukemia; 70.8 µM in the assay with ACHN renal; 73.2 µM with MALME-3M melanoma; 57.7 µM in the assay with MDA-MB-435.

For `COc1ccccc1N1C(=O)CS(=O)(=O)C1c1cccc(Oc2ccccc2)c1` (stereo not given), the TGI turned out to be 28.2 µM in the assay on SR leukemia; 59 µM in the assay on OVCAR-5 ovarian; 40 µM in the assay on NCI/ADR-RES ovarian; 82.8 µM in the assay with SW-620 colon; 34.3 µM in the assay on OVCAR-8 ovarian; 19.1 µM in the assay on K-562 leukemia. The TGI was found to be 48.2 µM with HS 578T breast; 79.9 µM in the assay with HL-60(TB) leukemia; 31.8 µM in the assay on BT-549 breast; 44.1 µM with HT29 colon; 33.3 µM in the assay on M14 melanoma; 27.3 µM in the assay on HCT-116 colon. The TGI came to 30.7 µM with MDA-MB-231 breast; 64.3 µM with CAKI-1 renal; 27.2 µM in the assay with PC-3 prostate; 33.7 µM with ACHN renal; 30 µM in the assay on MALME-3M melanoma; 22.2 µM in the assay on MDA-MB-435.
